Assay results from US9308238B2, “Compositions and methods for modulating EMT and uses thereof” (Whitehead Institute for Biomedical Research, priority 2010, dated 2016).

Columns and labels:
HMLE^24+ cells [1] = assay: RT-PCR / immunoblot of EMT markers and EMT-TFs in HMLE^24+ cells; assay type: cell-based, human
Protocol: FIGS. 5A-5H. Concomitant stimulation of Wnt and TGF-beta pathways allows HMLE^24+ cells to enter into a mesenchymal and SC-like state. (FIG. 5A) RT-PCR: N-Cadherin, Zeb1 and Zeb2, L32 was loading control, n=3. Prior RNA isolation, HMLE^24+-shGFP or -shSFRP1 (stable knockdown of SFRP1, FIG. 12A) cells were treated for 3 days with daily doses of indicated factors: anti-DKK1 antibody (10 μg/ml), anti-E-Cadherin antibody (1 μg/ml), TGF-beta 1 (5 ng/ml), Wnt5a (250 ng/ml), (FIG. 5B) Brightfield microscopy: images of control, TGF-beta- and iEMT-cocktail treated HMLE^24+ cells after 14 days of treatment as indicated (see also FIG. 12D). (FIG. 5C) RT-PCR: Zeb1, Zeb2, E-Cadherin and N-Cadherin, L32 was loading control, n=3. After 14 day treatment, cells were expanded in absence of further stimulation for 4 passages. […] (FIG. 5G) Lung metastasis: cells expanded for 8 passages after cessation of treatment as described in (C) were transformed with RAS; 1.0×10^5 cells were injected into the mammary fat pads of mice; GFP-labeled metastases on the surface of the lungs were quantified; *control vs. all other groups, p<0.05, n=5 mice/group. […]
Immunoblots. Protein was extracted with RIPA lysis buffer and concentration determined by the Lowry assay (Biorad). […]

HMLE^24+ cells [2] = assay: Proliferation in adherent monolayer cultures after 14 day treatment; assay type: cell-based, human; details: after cessation of 14 day treatment
Text: FIGS. 12A-12F. Concomitant stimulation of Wnt and TGF-beta pathways allows HMLE^24+ cells to enter into a mesenchymal and SC-like state. (FIG. 12A) RT-PCR: SFRP1, L32 was loading control, n=3; SFRP1 mRNA levels in HMLE^24+ stably expressing two hairpin-encoding vectors (shSFRP1a and -b) compared cells expressing a control hairpin targeting GFP (shGFP), HMLE^24+-shSFRP1b were used for iEMT experiments. (FIG. 12B) Flow cytometry: Expression of CD44 and CD24 cell-surface markers in HMLE, HMLE^24+-shGFP and -shSFRP1 cells. […] (FIG. 12F) Growth curves: proliferation of indicated cell lines was monitored by the MTS assay for 3 days, 8 passages after cessation of 14 day treatment as described in (D), n=12.
Proliferation Assays. […] Cell viability was measured using CellTiter-Glo (Promega) according to the manufacturer's instructions.

Substance: TGF-beta 1: recombinant TGF-beta 1 protein, used at 5 ng/ml
- induction of N-Cadherin, Zeb1 or Zeb2 (HMLE^24+ cells [1]; 3 days treatment): did not result in a significant induction
- E-/N-Cadherin expression (HMLE^24+ cells [1]; 14 day treatment, then expanded without stimulation): marginal upregulation of N-Cadherin
- proliferation rates in adherent monolayer cultures (HMLE^24+ cells [2]): stably lower
